Results taken from patent US5523314A, “Compounds useful as hypoglycemic agents and for treating Alzheimer's disease” (priority 1994, dated 1996).
Read-outs that look alike come from different tables or passages of the source.

Key:
[1] = system: blood glucose level; assay: Hypoglycemic activity in normal fed rats (Table 2); format: in vivo, male Sprague Dawley rats; conditions: Rattus norvegicus, oral
Experimental: The procedure used in this test system is described below.
The desired dose level of each test formulation was administered to four rats by oral […] at the beginning of the experiment. Blood glucose levels were determined immediately before the first dose and at 3 and 5 hours thereafter by an enzymatic procedure employing glucose oxidase and peroxidase coupled with a chromogenic oxygen acceptor. A mean was taken of the 4 values obtained before the first dose and at the 3 and 5 hour intervals.

[2] = system: plasma glucose concentration; assay: Long-term hypoglycemic activity, compound in diet, ZDF rats (Table 4); format: in vivo, 8 week old male Zucker Diabetic Fatty rat; conditions: 0.1% in diet
Experimental: Finally, the long-term hypoglycemic activity of the compounds of the present invention was tested in yet another in vivo test system. This long-term test system entailed incorporating test compound into the test animal's diet at various concentrations (control animal's diet contained no test compound). Such diet was then fed to the test or control animals for either 14 or 21 days. Each test or control animal was then bled from the tail (200-400 μl sample of blood) at 0 (before diet started), 7, 14 and, if appropriate, 21 and 28 days after diet administration was started. Plasma samples were then obtained from each blood sample collected and the glucose concentration of such plasma samples was determined enzymatically.
Columns 4-8 provide the plasma glucose concentration at days 0, 7, 14 and, if appropriate, 21 and 28, respectively, for the animals tested. Glucose lowering was not associated with depressed diet consumption.

[3] = system: blood glucose level; assay: Hypoglycemic activity in obese diabetic mice (Table 1); format: in vivo, male viable yellow obese-diabetic mice; conditions: Mus musculus, ip, intraperitoneal
Experimental: The hypoglycemic activity of the compounds of the present invention was determined by testing the efficacy of the compounds in vivo in male viable yellow obese-diabetic mice. The test procedure is described in detail below.
Test formulations were prepared by dissolving the test compound in a saline solution containing 2% Emulphor (a polyoxyethylated vegetable oil surfactant from GAP Corp.) to provide the dose level desired. Each test formulation was administered to six viable yellow obese-diabetic mice intraperitoneally at the beginning of the experiment. Blood glucose levels were determined immediately before the first dose and at 2 and 4 hours thereafter using glucose oxidase. A mean was taken of the 6 values obtained before the first dose and at the 2 and 4 hour intervals. In Table 1, Column 1 provides the example number of the test compound, Column 2 provides the dose level of compound tested, and Columns 3 and 4 provide a measurement of the test animal's blood glucose level 2 and 4 hours after test compound administration, respectively, as a percentage of the test animal' s pre-administration blood glucose level.

[4] = target: T1, Human liver cathepsin D (Homo sapiens, UniProt P07339); assay: Cathepsin D inhibition, fluorometric assay (Tables 5 and 6); format: biochemical; conditions: for inhibition at 4.15 µg/mL (stock): Compound Stock Concentration 4.15 μg/ml; for inhibition at 10 µg/mL (stock): Compound Stock Concentration 10.0 μg/ml; for inhibition at 8.3 µg/mL (stock): Compound Stock Concentration 8.3 μg/ml
T1 construct: purchased Athens Research and Technology, Athens, Ga; host or cells: human liver
T1 sequence (P07339 169-412 limits assumed): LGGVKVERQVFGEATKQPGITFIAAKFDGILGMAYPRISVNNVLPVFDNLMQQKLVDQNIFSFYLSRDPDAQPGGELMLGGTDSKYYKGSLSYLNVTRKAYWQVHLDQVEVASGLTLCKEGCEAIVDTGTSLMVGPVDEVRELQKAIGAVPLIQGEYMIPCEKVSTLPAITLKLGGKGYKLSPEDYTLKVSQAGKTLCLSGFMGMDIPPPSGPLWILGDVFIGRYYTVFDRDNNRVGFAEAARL
T1 sequence (P07339 65-161 limits assumed): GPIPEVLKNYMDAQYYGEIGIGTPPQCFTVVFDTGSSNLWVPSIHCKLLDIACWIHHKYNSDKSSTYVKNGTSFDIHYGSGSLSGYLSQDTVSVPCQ
Procedure, shortened: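 Human liver cathepsin D at 500 ng/mL in 200 mM NaOAc pH 4.5, 150 mM NaCl, incubated 30 minutes at 37° C. Reaction stopped with microsomal leucine aminopeptidase (pH 8.0), which over two hours at 37° C releases AMC from cleavage products for fluorometric reading; aminopeptidase inhibition checked with Leu-pNA.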

[5] = system: β-amyloid protein; assay: β-amyloid protein production inhibition in 293 751 SWE and CHO 751 SWE cells, ELISA (Table 7); format: cell-based; conditions: normalized for cytotoxicity; for inhibition at 0.31 µg/mL (stock): Compound Stock Concentration 0.31 μg/ml; for inhibition at 0.62 µg/mL (stock): Compound Stock Concentration 0.62 μg/ml; for inhibition at 1.25 µg/mL (stock): Compound Stock Concentration 1.25 μg/ml; for inhibition at 2.5 µg/mL (stock): Compound Stock Concentration 2.5 μg/ml; for inhibition at 5 µg/mL (stock): Compound Stock Concentration 5.0 μg/ml; for inhibition at 10 µg/mL (stock): Compound Stock Concentration 10.0 μg/ml
Experimental: Two cell lines (human kidney cell line 293 and Chinese hamster ovary cell line CHO) were stably transfected with the gene for APP751 containing the double mutation Lys-651-Met-652 to Asn-651-Leu-652 (APP-751 numbering) commonly called the Swedish mutation using the method described in Citron et al., Nature 360:672-674 (1992). The transfected cell lines were designated as 293 751 SWE and CHO 751 SWE, and were plated in Corning 96 well plates at 2.5×10^4 or 1×10^4 cells per well respectively in Dulbecco's minimal essential media (DMEM) plus 10% fetal bovine serum. […] These compound stocks were prepared by dissolving a sufficient quantity of the particular compound to be tested in DMSO such that various concentrations were obtained. After this pretreatment period, the conditioned media was removed and replaced with fresh conditioned media and the cells were incubated for an additional two hours.
After treatment, plates were centrifuged in a Beckman GPR at 1200 rpm for five minutes at room temperature to pellet cellular debris from the conditioned media. From each well, 100 μL of conditioned media were transferred into an ELISA plate precoated with antibody 266 [Seubert et al., Nature, 359:325-327 (1992)] and stored at 4° C. overnight prior to the completion of the ELISA assay the next day.
Cytotoxic effects of the compounds were measured by a modification of the method of Hansen et al., J. Immun. Meth. 119:203-210 (1989). To the cells remaining in the tissue culture plate, was added 25 μL of a 3-(4,5-dimethylthiazol-2-yl)-2,5-diphenyltetrazolium bromide (MTT) stock solution (5 mg/mL) to a final concentration of 1 mg/mL. Cells were incubated at 37° C. for one hour, and cellular activity was stopped by the addition of an equal volume of MTT lysis buffer (20% w/v sodium dodecylsulfate in 50% DMF, pH 4.7). Complete extraction was achieved by overnight shaking at room temperature. The difference in the OD562nm and the OD650nm was measured in a Molecular Devices UVmax microplate reader as an indicator of the cellular viability.
The results of the β-amyloid protein ELISA were fit to a standard curve and expressed as ng/mL β-amyloid protein peptide. In order to normalize for cytotoxicity, these β-amyloid protein results were divided by the cytotoxicity results and expressed as a percentage of the results from a drug-free control.

[6] = 3 hrs, read-out: Percent of Initial Blood Glucose Level After 3 hrs.
[7] = 5 hrs, read-out: Percent of Initial Blood Glucose Level After 5 hrs.
[8] = 2 h, 2 hrs, read-out: Percent of Initial Blood Glucose Level After 2 hrs.
[9] = 4 h, 4 hrs, read-out: Percent of Initial Blood Glucose Level After 4 hrs.

Row | SMILES | response vs control in vivo at 200 mg/kg [1, 6] [%] | response vs control in vivo at 200 mg/kg [1, 7] [%] | response vs control in vivo at 50 mg/kg [3, 8] [%] | response vs control in vivo at 50 mg/kg [3, 9] [%] | IC50 [4] [µM] | inhibition at 4.15 µg/mL (stock) [4] [%] | inhibition at 10 µg/mL (stock) [5] [%] | also measured
1 | CCCCCOc1ccc(CC2SC(=S)NC2=O)cc1OC (centres unmarked) [Example 64, 5-[(3-methoxy-4-pentoxyphenyl)methyl]-2-thioxo-4-thiazolidinone] | 91 | 89 | – | – | – | – | – | Plasma Glucose Concentration ([2]; day 0 (before diet started)): 339 mg/dL; Plasma Glucose Concentration ([2]; day 7): 187 mg/dL; Plasma Glucose Concentration ([2]; day 14): 182 mg/dL
2 | CCCCCCCOc1ccc(C=C2SC(=S)NC2=O)cc1OC [Example 31, 5-[(3-methoxy-4-heptoxyphenyl)methylene]-2-thioxo-4-thiazolidinone] | 95 | 92 | 76 ± 7 | 76 ± 5 | 1.9 | 69.5 | 57 | inhibition at 10 µg/mL (stock) [4]: 88.5%; inhibition at 0.31 µg/mL (stock) [5]: 0%; inhibition at 0.62 µg/mL (stock) [5]: 7%; inhibition at 1.25 µg/mL (stock) [5]: 15%; inhibition at 2.5 µg/mL (stock) [5]: 28%; inhibition at 5 µg/mL (stock) [5]: 37%
3 | CCCCCCOc1ccc(C=C2SC(=S)NC2=O)cc1OC [Example 68, 5-[(3-methoxy-4-hexoxyphenyl)methylene]-2-thioxo-4-thiazolidinone] | 88 | 89 | – | – | 10.2 | 53.7 | – | –
4 | O=C1NC(=S)SC1=Cc1ccc(-c2ccccc2)cc1 [Example 42, 5-[[(1,1'-biphenyl)-4-yl]methylene]-2-thioxo-4-thiazolidinone] | – | – | 87 ± 8 | 70 ± 8 | 1.7 | 78 | 51 | inhibition at 10 µg/mL (stock) [4]: 87.5%; inhibition at 0.31 µg/mL (stock) [5]: 8%; inhibition at 0.62 µg/mL (stock) [5]: 11%; inhibition at 1.25 µg/mL (stock) [5]: 14%; inhibition at 2.5 µg/mL (stock) [5]: 16%; inhibition at 5 µg/mL (stock) [5]: 35%
5 | O=C1NC(=S)SC1=Cc1ccc(Oc2ccccc2)cc1 [Example 5, 5-[(4-phenoxyphenyl)methylene]-2-thioxo-4-thiazolidinone] | – | – | 79 ± 4 | 71 ± 3 | 3.6 | – | 47 | inhibition at 8.3 µg/mL (stock) [4]: 100%; inhibition at 10 µg/mL (stock) [4]: 76%
6 | CCCCCCCCOc1ccc(C=C2SC(=S)NC2=O)cc1OC [Example 69, 5-[(3-methoxy-4-octoxyphenyl)methylene]-2-thioxo-4-thiazolidinone] | 93 | 88 | – | – | 2.1 | 51 | – | –
7 | CCCCCCCOc1ccc(C=C2SC(=S)N(N(C)C)C2=O)cc1OC [Example 81, 5-[(3-methoxy-4-heptoxyphenyl)methylene]-2-thioxo-3-dimethylamino-4-thiazolidinone] | – | – | – | – | 319 | – | 100 | inhibition at 8.3 µg/mL (stock) [4]: 21%
8 | O=C1NC(=S)SC1=Cc1ccco1 [Example 15, 5-[(2-furanyl)methylene]-2-thioxo-4-thiazolidinone] | – | – | 73 ± 5 | 62 ± 4 | – | – | – | response vs control in vivo at 167 mg/kg [1, 6]: 84%; response vs control in vivo at 167 mg/kg [1, 7]: 87%
9 | O=C1NC(=S)SC1=Cc1cccc(Oc2ccccc2)c1 [Example 77, 5-[(3-phenoxyphenyl)methylene]-2-thioxo-4-thiazolidinone] | – | – | – | – | 3.7 | 64 | 25 | inhibition at 10 µg/mL (stock) [4]: 87%
10 | CCOc1ccc(C=C2SC(=S)NC2=O)cc1OC [Example 48, 5-[(3-methoxy-4-ethoxyphenyl)methylene]-2-thioxo-4-thiazolidinone] | – | – | 70 ± 3 | 65 ± 3 | – | – | – | response vs control in vivo at 167 mg/kg [1, 6]: 87%; response vs control in vivo at 167 mg/kg [1, 7]: 81%; response vs control in vivo at 25 mg/kg [3, 8]: 87 ± 4%; response vs control in vivo at 25 mg/kg [3, 9]: 81 ± 5%
11 | CCCOc1ccc(C=C2SC(=S)NC2=O)cc1OCC [Example 49, 5-[(3-ethoxy-4-propoxyphenyl)methylene]-2-thioxo-4-thiazolidinone] | 100 | 98 | 83 ± 5 | 77 ± 7 | – | – | – | –
12 | COc1cc(C=C2SC(=S)NC2=O)cc(OC)c1O [Example 63, 5-[(3,5-dimethoxy-4-hydroxyphenyl)methylene]-2-thioxo-4-thiazolidinone] | 69 | 52 | – | – | – | 53 | – | –
13 | CCOc1cc(C=C2SC(=S)NC2=O)ccc1O [Example 32, 5-[(3-ethoxy-4-hydroxyphenyl)methylene]-2-thioxo-4-thiazolidinone] | 100 | 96 | 75 ± 4 | 80 ± 8 | – | 75 | – | –
14 | O=C1NC(=S)SC1=Cc1ccncc1 [Example 16, 5-[(4-pyridyl)methylene]-2-thioxo-4-thiazolidinone] | 92 | 79 | 94 ± 8 | 96 ± 9 | – | – | – | –
15 | COc1ccccc1C=C1SC(=S)NC1=O [Example 26, 5-[(2-methoxyphenyl)methylene]-2-thioxo-4-thiazolidinone] | 100 | 100 | 80 ± 4 | 75 ± 2 | – | – | – | –
